This passage reports MIC results from PMC10525732, “Assessing the Activity under Different Physico-Chemical Conditions, Digestibility, and Innocuity of a GAPDH-Related Fish Antimicrobial Peptide and Analogs Thereof” (Antibiotics, 2023).

In this test the test system is E. coli ATCC 11229. Kind of test: Minimal inhibitory concentration (MIC), broth microdilution. The test is classed as cell-based. The settings on record: Escherichia coli. How it is done: It was cultivated in tryptic soy broth (TSB) (BD, Sparks, NV, USA) at 37 °C and subcultured three times before being used for antimicrobial activity assays.
MICs for Escherichia coli ATCC 11229 were determined using a broth microdilution protocol. Briefly, twofold dilutions of peptide solutions ([…]) were made in Mueller Hinton Broth (MHB) (Oxoid, Basingstoke, UK) in 96-well polypropylene clear round bottom microplates (Corning Inc., Corning, NY, USA). Bacteria were cultured for 18 h and then diluted in MHB broth and inoculated in the microplates so that the final inoculum in the wells was 5 × 10^5 CFU/mL. The final volumes in the wells were 200 μL. Plates were then incubated for 16 h at 37 °C. […] Chloramphenicol (Sigma-Aldrich, St. Louis, MI, USA) was used as a positive control to ensure the validity of the tests. […] MBCs were defined as the lowest peptide concentrations that inhibited 99.9% or more of bacterial growth based on the initial 5 × 10^5 CFU/mL inocula in the wells [66]. Three independent repetitions were completed, and two technical replicates were done for each independent repetition.
The impact of different salts on the antimicrobial activity of SJGAP and analogs thereof was tested by determining the effect on their MIC and MBC values. The same procedure as described above was used, but different concentrations of salts were added to the MHB medium in the microplates. To test the impact of monovalent cations, NaCl (Fisher Scientific, Fair Lawn, NJ, USA) and KCl (EMD, Gibbstown, NJ, USA) were tested at final concentrations of 50, 150, and 300 mM in the wells.
The stability of the peptides at elevated temperatures was also tested. Mixtures of the peptides solubilized in MHB medium were heated to 100 °C for 15 min in a water bath. After cooling in an ice water bath, the solutions were loaded into the microplates and inoculated with the tested bacteria to conduct the MIC and MBC assays. For all tested conditions, three independent repetitions and two technical replicates for each of these repetitions were completed.
In general terms: Dilution methods test growth across graded concentrations, often in twofold steps.

≈ marks a conversion by molar mass, not a printed value. Where two headings read alike, the source gives them in different places.

As for `O=C(N[C@H](CO)[C@H](O)c1ccc([N+](=O)[O-])cc1)C(Cl)Cl` [Chloramphenicol], the minimal inhibitory concentration (MIC) (ATCC11229, 16 h, MHB + 1 mM CaCl2, 16 h, 37 °C, 5 × 10^5 CFU/mL, three independent repetitions, n.a. = no activity, read-out: MIC) worked out at 8 µg/mL; the MIC (ATCC11229, MHB + 1 mM MgCl2, n.a. = no activity, read-out: MIC) was 8 µg/mL; the MIC (ATCC11229, MHB + 5 mM CaCl2, n.a. = no activity, read-out: MIC) was 8 µg/mL; the MIC (ATCC11229, MHB + 5 mM MgCl2, n.a. = no activity, read-out: MIC) was 8 µg/mL; the MIC (ATCC11229, MHB + 10 mM CaCl2, n.a. = no activity, read-out: MIC) came out at 8 µg/mL; the MIC (ATCC11229, MHB + 10 mM MgCl2, n.a. = no activity, read-out: MIC) was 8 µg/mL. The MIC by setting is: (ATCC11229, MHB + 50 mM KCl, n.a. = no activity, * very weak bacterial growth detected, read-out: MIC) 8 µg/mL; (ATCC11229, MHB + 50 mM NaCl, n.a. = no activity, * very weak bacterial growth detected, read-out: MIC) 8 µg/mL; (ATCC11229, MHB + 150 mM KCl, n.a. = no activity, * very weak bacterial growth detected, read-out: MIC) 4 µg/mL; (ATCC11229, MHB + 150 mM NaCl, n.a. = no activity, * very weak bacterial growth detected, read-out: MIC) 4 µg/mL; (ATCC11229, MHB + 300 mM KCl, n.a. = no activity, read-out: MIC) 2 µg/mL; (ATCC11229, MHB + 300 mM NaCl, n.a. = no activity, read-out: MIC) 4 µg/mL. Besides, the MIC was 8 µg/mL (≈ 24.8 µM) (ATCC11229, […], peptide in MHB heated 100 °C, 15 min in water bath, cooled, then assayed, n.a. = no activity, read-out: MIC after heating treatment); 0.5 µg/mL (≈ 1.55 µM) (ATCC11229, pH 5, MHB adjusted to pH 5 with 50 mM citrate buffer, * very weak bacterial growth detected, read-out: MIC); 2 µg/mL (≈ 6.19 µM) (ATCC11229, pH 6, MHB adjusted to pH 6 with 50 mM citrate buffer, * very weak bacterial growth detected, read-out: MIC); 4 µg/mL (≈ 12.4 µM) (ATCC11229, pH 7, MHB adjusted to pH 7 with 50 mM phosphate buffer, n.a. = no activity, read-out: MIC); 4 µg/mL (≈ 12.4 µM) (ATCC11229, pH 8, MHB adjusted to pH 8 with 50 mM phosphate buffer, n.a. = no activity, read-out: MIC); 8 µg/mL (≈ 24.8 µM) (ATCC11229, unmodified MHB (Ctrl −), n.a. = no activity, read-out: MIC).

As a reminder, the MIC is the smallest concentration in the dilution series that meets the test's criterion for growth inhibition.
